Where two headings read alike, the source gives them in different places.
Tested on: Dengue-2 (Strain New Guinea C)
Test: Viral yield assay against Dengue-2 in Vero cells
Format: cell-based, Dengue virus
Conditions: Dengue virus
Outline: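 Yield reduction, Vero; MOI 0.1; compound vs DMSO; 37° C; harvest 48 h p.i.; titer on Vero; EC50 fitted. Other serotypes run the same way.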

[1] = Vero cells, MOI 0.1, harvested 48 hours post infection, read-out: Activity (EC50 class) against Dengue-2 Virus in Vero cells
[2] = DENV2, viral yield assay, Vero cells, MOI 0.1, 48 hours post infection, read-out: Activity (EC50 in μM) DENV-2
[3] = Vero, 48 h, read-out: Activity (EC50 class) against Dengue-2 Virus in Vero cells

Row | SMILES | EC50 [1] [µM] | EC50 [2] [µM] | other results
1 | CN1CCc2nc3sc(C(=O)Nc4ccc(F)c(Cl)c4)c(N)c3cc2C1 [Compound 110, 3-Amino-6-methyl-5,6,7,8-tetrahydro-thieno[2,3-b][1,6]naphthyridine-2-carboxylic acid (3-chloro-4-fluoro-phenyl)-amide] | 5 to 25 | – | –
2 | CC1(C)CC(=O)c2cc3c(N)c(C(=O)Nc4ccc5c(c4)OCO5)sc3nc2C1 [Compound 226, 3-Amino-7,7-dimethyl-5-oxo-5,6,7,8-tetrahydro-thieno[2,3-b]quinoline-2-carboxylic acid benzo[1,3]dioxol-5-ylamide] | > 25 | – | –
3 | O=C(Nc1ccccc1)c1sc2ncccc2c1OCc1ccc(Cl)c(Cl)c1 [Compound 379, 3-[(3,4-dichlorophenyl)methoxy]-N-phenyl-thieno[2,3-b]pyridine-2-carboxamide] | – | < 5 | –
4 | Nc1c(C(=O)Nc2ccc(Br)cc2)sc2nc(-c3ccc4c(c3)OCO4)ccc12 [Compound 474, 3-amino-6-(1,3-benzodioxol-5-yl)-N-(4-bromophenyl)thieno[2,3-b]pyridine-2-carboxamide] | – | < 5 | –
5 | CC1(C)CC(=O)c2cc3c(N)c(C(=O)NCc4ccco4)sc3nc2C1 [Compound 95, 3-Amino-7,7-dimethyl-5-oxo-5,6,7,8-tetrahydro-thieno[2,3-b]quinoline-2-carboxylic acid (furan-2-ylmethyl)-amide] | – | – | EC50 [3]: 5 to 25 µM
6 | COCc1cc(C)nc2sc(C(=O)Nc3cccc4ccccc34)c(N)c12 [Compound 74, 3-Amino-4-methoxymethyl-6-methyl-thieno[2,3-b]pyridine-2-carboxylic acid naphthalen-1-ylamide] | 5 to 25 | – | –
7 | COc1cccc(-c2ccc3c(N)c(C(=O)Nc4ccc(F)cc4C)sc3n2)c1 [Compound 551, 3-amino-N-(4-fluoro-2-methyl-phenyl)-6-(3-methoxyphenyl)thieno[2,3-b] pyridine-2-carboxamide] | – | < 5 | –
8 | CCN(CC)C(=O)c1sc2nc3c(cc2c1N)CN(C)CC3 [Compound 15, 3-Amino-6-methyl-5,6,7,8-tetrahydro-thieno[2,3-b][1,6]naphthyridine-2-carboxylic acid diethylamide] | < 5 | – | –
9 | CN1CCc2nc3sc(C(=O)Nc4ccccc4)c(N)c3cc2C1 [Compound 48, 3-Amino-6-methyl-5,6,7,8-tetrahydro-thieno[2,3-b][1,6]naphthyridine-2-carboxylic acid phenylamide] | < 5 | – | –
10 | CN1CCc2nc3sc(C(=O)Nc4ccccc4)c(N)c3c(-c3ccccc3)c2C1 [Compound 49, 3-Amino-6-methyl-4-phenyl-5,6,7,8-tetrahydro-thieno[2,3-b][1,6]naphthyridine-2-carboxylic acid phenylamide] | < 5 | – | –
11 | CN(C)c1ccnc2sc(C(N)=O)c(N)c12 [Compound 166, 3-Amino-4-dimethylamino-thieno[2,3-b]pyridine-2-carboxylic acid amide] | – | – | EC50 [3]: > 25 µM
12 | COc1cccc(-c2ccc3c(N)c(C(=O)Nc4cc(Cl)cc(Cl)c4)sc3n2)c1 [Compound 564, 3-amino-N-(3,5-dichlorophenyl)-6-(3-methoxyphenyl)thieno[2,3-b]pyridine-2-carboxamide] | – | < 5 | –
13 | CN1CCc2nc3sc(C(=O)Nc4ccc(F)cc4)c(N)c3cc2C1 [Compound 29, 3-Amino-6-methyl-5,6,7,8-tetrahydro-thieno[2,3-b][1,6]naphthyridine-2-carboxylic acid (4-fluoro-phenyl)-amide] | < 5 | – | –
14 | CC(=O)Nc1ccc(NC(=O)c2sc3nc4c(cc3c2N)CCCC4)cc1 [Compound 204, 3-Amino-5,6,7,8-tetrahydro-thieno[2,3-b]quinoline-2-carboxylic acid (4-acetylamino-phenyl)-amide] | > 25 | – | –
15 | NCCCNc1c(C(=O)Nc2nnc(-c3ccccc3)s2)sc2nc3c(cc12)CCCCC3 [Compound 313, 3-((3-aminopropyl)amino)-N-(5-phenyl-1,3,4-thiadiazol-2-yl)-6,7,8,9-tetrahydro-5H-cyclohepta[b]thieno[3,2-e]pyridine-2-carboxamide] | – | – | EC50 (DENV2, Vero cells, read-out: Activity (EC50 in μM) DENV-2): < 5 µM
16 | CC(=O)c1ccc(NC(=O)c2sc3nc4c(c(-c5ccccc5)c3c2N)CN(C)CC4)cc1 [Compound 51, 3-Amino-6-methyl-4-phenyl-5,6,7,8-tetrahydro-thieno[2,3-b][1,6]naphthyridine-2-carboxylic acid (4-acetyl-phenyl)-amide] | < 5 | – | –
17 | CC1(C)Cc2nc3sc(C(=O)NCCCO)c(N)c3cc2CS1 [Compound 253, 3-Amino-7,7-dimethyl-7,8-dihydro-5H-1,6-dithia-9-aza-cyclopenta[b]naphthalene-2-carboxylic acid (3-hydroxy-propyl)-amide] | – | – | EC50 [3]: > 25 µM
18 | COc1cccc(-c2ccc3c(N)c(C(=O)Nc4cccc(F)c4C)sc3n2)c1 [Compound 515, 3-amino-N-(3-fluoro-2-methyl-phenyl)-6-(3-methoxyphenyl)thieno[2,3-b] pyridine-2-carboxamide] | – | < 5 | –

Row | SMILES | EC50 [1] [µM] | EC50 [2] [µM] | other results
19 | Cc1ccc2c(N)c(C(=O)Nc3ccc(OC(F)(F)F)cc3)sc2n1 [Compound 457, 3-amino-6-methyl-N-[4-(trifluoromethoxy)phenyl]thieno[2,3-b] pyridine-2-carboxamide] | – | 5 to 25 | –
20 | Nc1c(C(=O)Nc2cccc(C(F)(F)F)c2)sc2nc(-c3ccncc3)ccc12 [Compound 440, 3-amino-6-(4-pyridyl)-N-[3-(trifluoromethyl)phenyl]thieno[2,3-b] pyridine-2-carboxamide] | – | 5 to 25 | –
21 | CC1(C)Cc2c(c(N3CCOCC3)nc3sc(C(N)=O)c(N)c23)CO1 [Compound 169, 1-Amino-8,8-dimethyl-5-morpholin-4-yl-8,9-dihydro-6H-7-oxa-3-thia-4-aza-cyclopenta[a]naphthalene-2-carboxylic acid amide] | – | – | EC50 [3]: > 25 µM
22 | CCCCNC(=O)c1sc2nc3c(cc2c1NC(C)=O)COC(C)(C)C3 [Compound 237, 3-Acetylamino-7,7-dimethyl-7,8-dihydro-5H-pyrano[4,3-b]thieno[3,2-e]pyridine-2-carboxylic acid butylamide] | > 25 | – | –
23 | Nc1c(C(=O)Nc2ccc(F)c(Cl)c2)sc2nc(-c3ccc4c(c3)OCO4)ccc12 [Compound 595, 3-amino-6-(1,3-benzodioxol-5-yl)-N-(3-chloro-4-fluoro-phenyl)thieno[2,3-b] pyridine-2-carboxamide] | – | < 5 | –
24 | Cc1cc(C)c2c(C)c(C(=O)Nc3nc4ccccc4s3)sc2n1 [Compound 392, N-(1,3-benzothiazol-2-yl)-3,4,6-trimethyl-thieno[2,3-b]pyridine-2-carboxamide] | – | 5 to 25 | –
25 | Nc1c(C(=O)N2CCCCC2)sc2nc3c(cc12)CCCCC3 [Compound 191, (3-Amino-6,7,8,9-tetrahydro-5H-1-thia-10-aza-cyclohepta[f]inden-2-yl)-piperidin-1-yl-methanone] | > 25 | – | –
26 | COc1ccc(-c2ccc3c(N)c(C(=O)Nc4ccc(Br)cc4C)sc3n2)cc1OC [Compound 578, 3-amino-N-(4-bromo-2-methyl-phenyl)-6-(3,4-dimethoxyphenyl)thieno[2,3-b] pyridine-2-carboxamide] | – | < 5 | –
27 | COCc1cc(C)nc2sc(C(=O)Nc3ccccc3)c(N)c12 [Compound 124, 3-Amino-4-methoxymethyl-6-methyl-thieno[2,3-b]pyridine-2-carboxylic acid phenylamide] | > 25 | – | –
28 | COc1cccc(-c2ccc3c(N)c(C(=O)N(CCC(=O)O)c4ccc(OC(F)(F)F)cc4)sc3n2)c1 [Compound 354, 3-[N-[3-amino-6-(3-methoxy-phenyl)thieno[2,3-b]pyridine-2-carbonyl]-4-(tri-fluoro-methoxy)anili-no]propanoic acid] | – | 5 to 25 | –
29 | COc1ccnc2sc(C(=O)Nc3nnc(-c4ccccc4)s3)c(N)c12 [Compound 287, 3-amino-4-methoxy-N-(5-phenyl-1,3,4-thiadiazol-2-yl)thieno[2,3-b]pyridine-2-carboxamide] | – | 5 to 25 | –
30 | NC(=O)c1sc2nccc(Nc3ccccc3)c2c1N [Compound 158, 3-Amino-4-phenylamino-thieno[2,3-b]pyridine-2-carboxylic acid amide] | > 25 | – | –
31 | Nc1c(C(=O)N(CCC(=O)O)c2ccc(Cl)cc2)sc2nc(-c3ccc(Cl)cc3)ccc12 [Compound 355, 3-(N-[3-amino-6-(4-chloro-phenyl)thieno [2,3-b]pyridine-2-carbonyl]-4-chloro-anilino) propanoic acid] | – | < 5 | –
32 | Cc1cc(C)c2c(N)c(C(=O)NCc3ccccc3)sc2n1 [Compound 260, 3-Amino-4,6-dimethyl-thieno[2,3-b]pyridine-2-carboxylic acid benzylamide] | – | – | EC50 [3]: > 25 µM
33 | Cc1cc(C(F)(F)F)c2c(N)c(C(=O)Nc3ccc(I)cc3C)sc2n1 [Compound 123, 3-Amino-6-methyl-4-trifluoromethyl-thieno[2,3-b]pyridine-2-carboxylic acid (4-iodo-2-methyl-phenyl)-amide] | > 25 | – | –
34 | CN1CCc2nc3sc(C(=O)Nc4ccc(Cl)cc4)c(N)c3c(-c3ccccc3)c2C1 [Compound 64, 3-Amino-6-methyl-4-phenyl-5,6,7,8-tetrahydro-thieno[2,3-b][1,6]naphthyridine-2-carboxylic acid (4-chloro-phenyl)-amide] | < 5 | – | –
35 | CN1CCc2nc3sc(C(=O)Nc4ccc(Cl)cc4)c(N)c3cc2C1 [Compound 13, 3-Amino-6-methyl-5,6,7,8-tetrahydro-thieno[2,3-b][1,6]naphthyridine-2-carboxylic acid (4-chloro-phenyl)-amide] | – | – | EC50 [3]: < 5 µM
36 | Nc1c(C(=O)Nc2ccc(F)cc2)sc2nc3c(cc12)CCCCC3 [Compound 116, 3-Amino-6,7,8,9-tetrahydro-5H-1-thia-10-aza-cyclohepta[f]indene-2-carboxylic acid (4-fluoro-phenyl)-amide] | – | – | EC50 [3]: > 25 µM
